Experimental data reported in patent publication US9717253B2, “Synergistic Bacillus thuringiensis subsp. aizawai and chlorantraniliprole mixtures for diamondback moth, beet armyworm, soybean looper, corn earworm, cabbage looper, and southwestern corn borer control” (priority 2015, dated 2017).
Read-outs that look alike come from different tables or passages of the source.

What was measured:
[1] = tested on: diamondback moth larvae; assay: Leaf dip test, diamondback moth larvae; type: in vivo; conditions: Plutella xylostella, foliar, Bta 2.7 ppm, chlorantraniliprole 0.0009 ppm, mixture 2.7 ppm + 0.0009 ppm, read-out: % Efficacy
Method: (§1) For these tests, standardized laboratory leaf dip methods were used to inoculate plant material with treatment(s). Dry, treated leaves were placed into Petri dishes (100×25 mm) containing filter paper wetted with 500 μl of distilled H2O (“dH2O”). Each dish was then infested with between 5 and 10 larvae, dependent on species. Efficacy ratings were taken at specified intervals. Synergy ratings were calculated for each test.
In this study, the response of diamondback moth larvae to synergistic amounts of Bacillus thuringiensis subsp. aizawai (“Bta”) and chlorantraniliprole was observed.
(§2) % Cexp=A+B−(AB/100), where % Cexp is the expected efficacy and “in which A and B are the control levels given by the single [insecticides]. If the ratio between the experimentally observed efficacy of the mixture Cobs and the expected efficacy of the mixture is greater than 1, synergistic interactions are present in the mixture.” (Gisi, Synergisitic Interaction of Fungicides in Mixtures, The American Phytopathological Society, 86:11, 1273-1279, 1996). Adopting a conservative approach, Applicant determined synergy to be present at ratios of ≧1.15.
(§3) Bacillus thuringiensis subsp. aizawai was applied at a concentration of 2.7 ppm (2.7 μg/ml). Chlorantraniliprole was applied at a concentration of 0.0009 ppm (0.0009 μg/ml). […]

[2] = tested on: beet armyworm larvae; assay: Leaf dip test, beet armyworm larvae; type: in vivo; conditions: Spodoptera exigua, foliar, Bta 2.7 ppm, chlorantraniliprole 0.0009 ppm, mixture 2.7 ppm + 0.0009 ppm, read-out: % Efficacy
Method: as §1, §2
In this study, the response of beet armyworm larvae to amounts of Bacillus thuringiensis subsp. aizawai and chlorantraniliprole was observed.
as §3

[3] = tested on: cabbage looper larvae; assay: Leaf dip test, cabbage looper larvae; type: in vivo; conditions: Trichoplusia ni, foliar, Bta 2.7 ppm, chlorantraniliprole 0.0009 ppm, mixture 2.7 ppm + 0.0009 ppm, read-out: % Efficacy
Method: as §1, §2
In this study, the response of cabbage looper larvae to amounts of Bacillus thuringiensis subsp. aizawai and chlorantraniliprole was observed.
as §3

[4] = tested on: sugarcane borer larvae; assay: Leaf dip test, sugarcane borer larvae; type: in vivo; conditions: foliar, Bta 27 ppm, chlorantraniliprole 0.0009 ppm, mixture 27 ppm + 0.0009 ppm, read-out: % Efficacy
Method: as §1, §2
In this study, the response of sugarcane borer larvae to amounts of Bacillus thuringiensis subsp. aizawai and chlorantraniliprole was observed.
(§4) Bacillus thuringiensis subsp. aizawai was applied at a concentration of 27 ppm (27 μg/ml). Chlorantraniliprole was applied at a concentration of 0.0009 ppm (0.0009 μg/ml). […]

[5] = tested on: southwestern corn borer larvae; assay: Leaf dip test, southwestern corn borer larvae; type: in vivo, Diatraea grandiosella; conditions: foliar, Bta 2.7 ppm, chlorantraniliprole 0.0009 ppm, mixture 2.7 ppm + 0.0009 ppm, read-out: % Efficacy
Method: as §1, §2
In this study, the response of southwestern corn borer larvae to amounts of Bacillus thuringiensis subsp. aizawai and chlorantraniliprole was observed.
as §3

[6] = tested on: soybean looper larvae; assay: Leaf dip test, soybean looper larvae; type: in vivo, Chrysodeixis includens; conditions: foliar, Bta 27 ppm, chlorantraniliprole 0.0009 ppm, mixture 27 ppm + 0.0009 ppm, read-out: % Efficacy
Method: as §1, §2
In this study, the response of soybean looper larvae to amounts of Bacillus thuringiensis subsp. aizawai and chlorantraniliprole was observed.
as §4

[7] = tested on: corn earworm larvae; assay: Leaf dip test, corn earworm larvae; type: in vivo; conditions: Helicoverpa zea, foliar, Bta 27 ppm, chlorantraniliprole 0.0009 ppm, mixture 27 ppm + 0.0009 ppm, read-out: % Efficacy
Method: as §1, §2
In this study, the response of corn earworm larvae to amounts of Bacillus thuringiensis subsp. aizawai and chlorantraniliprole was observed.
as §4

## CNC(=O)c1cc(Cl)cc(C)c1NC(=O)c1cc(Br)nn1-c1ncccc1Cl [Chlorantraniliprole, chlorantraniliprole]
[1]; 24 h after treatment
  Emax at 0.0009 ppm: 7%
[1]; 48 h after treatment
  Emax at 0.0009 ppm: 7%
[2]; 24 h after treatment
  Emax at 0.0009 ppm: 10%
[2]; 48 h after treatment
  Emax at 0.0009 ppm: 13%
[3]; 24 h after treatment
  Emax at 0.0009 ppm: 7%
[3]; 48 h after treatment
  Emax at 0.0009 ppm: 10%
[4]; 24 h after treatment
  Emax at 0.0009 ppm: 6%
[4]; 48 h after treatment
  Emax at 0.0009 ppm: 12%
[5]; 24 h after treatment
  Emax at 0.0009 ppm: 3%
[5]; 48 h after treatment
  Emax at 0.0009 ppm: 7%
[6]; 24 h after treatment
  Emax at 0.0009 ppm: 10%
[6]; 48 h after treatment
  Emax at 0.0009 ppm: 13%
[7]; 24 h after treatment
  Emax at 0.0009 ppm: 10%
[7]; 48 h after treatment
  Emax at 0.0009 ppm: 7%
